Source: ChEMBL document CHEMBL5678818, “Discovery of potent SOS1 inhibitors that block RAS activation via disruption of the RAS-SOS1 interaction” (Proc Natl Acad Sci U S A, 2019)

Legend:
[1] = target: Tyrosine-protein kinase ABL1 (Homo sapiens) (UniProt P00519); assay: Inhibition of nonphosphorylated ABL1 (unknown origin) assessed as residual activity at 1000 nM by KINOMEscan analysis relative to control
[2] = target: Dual specificity protein kinase CLK4 (Homo sapiens) (UniProt Q9HAZ1); assay: Inhibition of CLK4 (unknown origin) assessed as residual activity at 1000 nM by KINOMEscan analysis relative to control
[3] = target: T1, Serine/threonine-protein kinase 17A (Homo sapiens) (UniProt Q9UEE5); assay: Inhibition of DRAK1 (unknown origin) assessed as residual activity at 1000 nM by KINOMEscan analysis relative to control
T1 sequence (whole entry): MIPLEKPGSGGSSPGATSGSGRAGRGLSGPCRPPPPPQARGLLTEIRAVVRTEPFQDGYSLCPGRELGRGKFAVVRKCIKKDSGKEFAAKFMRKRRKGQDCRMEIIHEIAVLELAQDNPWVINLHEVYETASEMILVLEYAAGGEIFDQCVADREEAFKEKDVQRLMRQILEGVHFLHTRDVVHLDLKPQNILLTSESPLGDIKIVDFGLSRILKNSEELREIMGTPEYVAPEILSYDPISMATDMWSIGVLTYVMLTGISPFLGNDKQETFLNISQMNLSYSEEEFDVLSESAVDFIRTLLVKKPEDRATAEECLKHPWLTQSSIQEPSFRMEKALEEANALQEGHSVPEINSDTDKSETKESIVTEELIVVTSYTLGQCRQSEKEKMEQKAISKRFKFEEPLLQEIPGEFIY

[4] = system: Receptor-type tyrosine-protein kinase FLT3 (Homo sapiens), P36888 [R834Q]; assay: Inhibition of FLT3 R834Q mutant (unknown origin) assessed as residual activity at 1000 nM by KINOMEscan analysis relative to control
[5] = target: Phosphorylase b kinase gamma catalytic chain, skeletal muscle/heart isoform (Homo sapiens) (UniProt Q16816); assay: Inhibition of PHKG1 (unknown origin) assessed as residual activity at 1000 nM by KINOMEscan analysis relative to control
Sequence of Phosphorylase b kinase gamma catalytic chain, skeletal muscle/heart isoform (Homo sapiens) (Q16816 whole entry, looked up, canonical isoform): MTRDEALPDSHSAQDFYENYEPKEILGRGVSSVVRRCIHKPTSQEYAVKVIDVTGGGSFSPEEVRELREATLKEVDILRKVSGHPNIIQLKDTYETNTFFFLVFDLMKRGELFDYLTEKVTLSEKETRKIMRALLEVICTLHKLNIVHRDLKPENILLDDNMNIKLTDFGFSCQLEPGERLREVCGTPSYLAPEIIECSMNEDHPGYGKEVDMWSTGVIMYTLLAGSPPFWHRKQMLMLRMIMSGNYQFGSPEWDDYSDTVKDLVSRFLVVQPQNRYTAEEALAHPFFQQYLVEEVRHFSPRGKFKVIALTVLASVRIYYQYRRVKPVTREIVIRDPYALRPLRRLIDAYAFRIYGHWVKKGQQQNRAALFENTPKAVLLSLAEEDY

[6] = system: Phosphatidylinositol 4,5-bisphosphate 3-kinase catalytic subunit alpha isoform (Homo sapiens), P42336 [I800L]; assay: Inhibition of PIK3CA I800L mutant (unknown origin) assessed as residual activity at 1000 nM by KINOMEscan analysis relative to control
Sequence of Phosphatidylinositol 4,5-bisphosphate 3-kinase catalytic subunit alpha isoform (Homo sapiens), P42336 [I800L] (P42336 whole entry I800L, canonical isoform): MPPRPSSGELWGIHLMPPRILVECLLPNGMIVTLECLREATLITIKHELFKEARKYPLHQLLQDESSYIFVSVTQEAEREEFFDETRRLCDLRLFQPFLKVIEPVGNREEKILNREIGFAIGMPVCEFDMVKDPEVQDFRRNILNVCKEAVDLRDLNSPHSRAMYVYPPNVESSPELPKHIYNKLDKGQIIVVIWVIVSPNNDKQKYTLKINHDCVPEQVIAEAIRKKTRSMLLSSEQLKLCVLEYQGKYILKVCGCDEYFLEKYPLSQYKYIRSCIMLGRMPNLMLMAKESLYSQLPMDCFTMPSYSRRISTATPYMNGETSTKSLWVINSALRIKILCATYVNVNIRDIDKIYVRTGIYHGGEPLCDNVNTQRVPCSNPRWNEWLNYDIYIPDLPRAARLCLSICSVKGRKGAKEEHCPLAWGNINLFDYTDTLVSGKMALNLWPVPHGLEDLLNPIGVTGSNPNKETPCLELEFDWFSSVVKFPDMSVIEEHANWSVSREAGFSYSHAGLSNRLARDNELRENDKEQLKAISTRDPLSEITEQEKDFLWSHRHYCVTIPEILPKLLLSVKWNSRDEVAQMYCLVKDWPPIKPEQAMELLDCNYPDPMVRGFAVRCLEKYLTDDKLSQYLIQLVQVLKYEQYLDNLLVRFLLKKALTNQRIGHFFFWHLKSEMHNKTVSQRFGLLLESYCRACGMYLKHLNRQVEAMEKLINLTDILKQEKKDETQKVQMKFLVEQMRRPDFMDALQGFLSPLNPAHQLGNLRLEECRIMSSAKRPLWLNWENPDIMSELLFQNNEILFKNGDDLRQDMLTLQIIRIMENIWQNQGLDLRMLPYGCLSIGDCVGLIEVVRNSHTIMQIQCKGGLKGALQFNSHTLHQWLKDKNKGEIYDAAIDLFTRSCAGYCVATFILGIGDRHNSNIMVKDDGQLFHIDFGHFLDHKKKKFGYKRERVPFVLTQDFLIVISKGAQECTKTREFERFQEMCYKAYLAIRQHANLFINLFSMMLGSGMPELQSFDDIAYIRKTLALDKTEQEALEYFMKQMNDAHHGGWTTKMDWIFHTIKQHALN

[7] = target: Serine/threonine-protein kinase pim-3 (Homo sapiens) (UniProt Q86V86); assay: Inhibition of PIM3 (unknown origin) assessed as residual activity at 1000 nM by KINOMEscan analysis relative to control
[8] = target: T2, Serine/threonine-protein kinase PknB (Mycobacterium tuberculosis) (UniProt P9WI81); assay: Inhibition of Mycobacterium tuberculosis PKNB assessed as residual activity at 1000 nM by KINOMEscan analysis relative to control
T2 sequence (whole entry): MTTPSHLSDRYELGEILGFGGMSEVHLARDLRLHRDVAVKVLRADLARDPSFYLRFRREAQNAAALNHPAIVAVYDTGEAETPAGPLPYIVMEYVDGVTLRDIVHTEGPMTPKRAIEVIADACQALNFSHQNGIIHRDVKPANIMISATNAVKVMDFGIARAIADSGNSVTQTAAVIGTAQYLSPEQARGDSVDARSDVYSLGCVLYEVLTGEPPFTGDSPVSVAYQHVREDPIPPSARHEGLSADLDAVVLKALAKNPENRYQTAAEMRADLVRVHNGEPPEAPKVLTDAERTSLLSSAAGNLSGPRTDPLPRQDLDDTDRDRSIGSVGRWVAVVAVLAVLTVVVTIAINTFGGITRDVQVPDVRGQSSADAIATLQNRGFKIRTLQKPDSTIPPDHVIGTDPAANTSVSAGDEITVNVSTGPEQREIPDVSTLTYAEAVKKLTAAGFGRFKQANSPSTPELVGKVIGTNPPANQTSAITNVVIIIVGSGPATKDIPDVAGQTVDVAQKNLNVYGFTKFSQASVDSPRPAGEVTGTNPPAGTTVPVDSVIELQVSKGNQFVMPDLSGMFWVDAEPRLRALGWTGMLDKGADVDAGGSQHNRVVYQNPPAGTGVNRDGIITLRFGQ

[9] = target: T3, cAMP-dependent protein kinase catalytic subunit PRKX (Homo sapiens) (UniProt P51817); assay: Inhibition of PRKX (unknown origin) assessed as residual activity at 1000 nM by KINOMEscan analysis relative to control
T3 sequence (whole entry): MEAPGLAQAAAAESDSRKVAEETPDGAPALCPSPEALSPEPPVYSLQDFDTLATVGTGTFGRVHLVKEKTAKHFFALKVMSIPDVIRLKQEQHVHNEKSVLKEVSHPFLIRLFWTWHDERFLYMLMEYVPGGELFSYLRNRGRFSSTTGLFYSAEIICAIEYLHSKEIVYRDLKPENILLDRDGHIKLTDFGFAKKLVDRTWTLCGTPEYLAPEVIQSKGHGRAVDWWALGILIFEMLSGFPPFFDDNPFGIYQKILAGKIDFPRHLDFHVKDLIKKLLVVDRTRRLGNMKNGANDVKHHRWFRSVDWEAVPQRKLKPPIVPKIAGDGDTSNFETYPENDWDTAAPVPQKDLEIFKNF

[10] = target: Ribosomal protein S6 kinase alpha-2 (Homo sapiens) (UniProt Q15349); assay: Inhibition of C-terminal RSK3 […] domain 2 (unknown origin) assessed as residual activity at 1000 nM by KINOMEscan analysis relative to control
[11] = target: Angiopoietin-1 receptor (Homo sapiens) (UniProt Q02763); assay: Inhibition of TIE2 (unknown origin) assessed as residual activity at 1000 nM by KINOMEscan analysis relative to control
Sequence of Angiopoietin-1 receptor (Homo sapiens) (Q02763 whole entry): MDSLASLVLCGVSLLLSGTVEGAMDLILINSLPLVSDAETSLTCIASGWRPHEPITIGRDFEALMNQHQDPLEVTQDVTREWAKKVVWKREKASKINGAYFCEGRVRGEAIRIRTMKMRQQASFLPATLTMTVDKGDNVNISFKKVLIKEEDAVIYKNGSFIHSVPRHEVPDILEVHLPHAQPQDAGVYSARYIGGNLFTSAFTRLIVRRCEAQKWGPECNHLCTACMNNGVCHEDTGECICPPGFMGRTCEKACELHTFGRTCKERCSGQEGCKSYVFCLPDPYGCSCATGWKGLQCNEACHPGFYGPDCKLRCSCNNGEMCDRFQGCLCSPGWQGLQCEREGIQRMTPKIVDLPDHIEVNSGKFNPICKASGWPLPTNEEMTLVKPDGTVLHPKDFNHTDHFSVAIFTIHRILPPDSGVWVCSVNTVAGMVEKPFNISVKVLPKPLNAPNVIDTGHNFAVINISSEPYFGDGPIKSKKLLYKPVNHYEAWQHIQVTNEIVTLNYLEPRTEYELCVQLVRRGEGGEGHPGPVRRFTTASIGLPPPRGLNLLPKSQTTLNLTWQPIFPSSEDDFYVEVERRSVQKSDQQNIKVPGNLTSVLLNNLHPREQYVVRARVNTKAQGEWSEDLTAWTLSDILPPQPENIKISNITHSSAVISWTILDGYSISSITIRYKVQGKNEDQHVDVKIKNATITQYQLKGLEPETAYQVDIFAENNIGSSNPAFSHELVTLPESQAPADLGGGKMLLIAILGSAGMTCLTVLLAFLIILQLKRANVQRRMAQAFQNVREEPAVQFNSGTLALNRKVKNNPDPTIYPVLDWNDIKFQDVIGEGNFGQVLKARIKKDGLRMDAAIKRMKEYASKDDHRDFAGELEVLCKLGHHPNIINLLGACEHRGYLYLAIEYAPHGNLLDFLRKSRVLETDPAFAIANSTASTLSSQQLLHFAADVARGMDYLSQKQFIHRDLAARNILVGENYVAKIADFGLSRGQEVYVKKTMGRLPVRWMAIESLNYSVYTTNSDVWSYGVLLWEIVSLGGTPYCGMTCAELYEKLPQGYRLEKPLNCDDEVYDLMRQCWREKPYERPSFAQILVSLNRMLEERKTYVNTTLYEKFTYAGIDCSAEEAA

[12] = target: Activated CDC42 kinase 1 (Homo sapiens) (UniProt Q07912); assay: Inhibition of TNK2 (unknown origin) assessed as residual activity at 1000 nM by KINOMEscan analysis relative to control
Sequence of Activated CDC42 kinase 1 (Homo sapiens) (Q07912 whole entry, looked up): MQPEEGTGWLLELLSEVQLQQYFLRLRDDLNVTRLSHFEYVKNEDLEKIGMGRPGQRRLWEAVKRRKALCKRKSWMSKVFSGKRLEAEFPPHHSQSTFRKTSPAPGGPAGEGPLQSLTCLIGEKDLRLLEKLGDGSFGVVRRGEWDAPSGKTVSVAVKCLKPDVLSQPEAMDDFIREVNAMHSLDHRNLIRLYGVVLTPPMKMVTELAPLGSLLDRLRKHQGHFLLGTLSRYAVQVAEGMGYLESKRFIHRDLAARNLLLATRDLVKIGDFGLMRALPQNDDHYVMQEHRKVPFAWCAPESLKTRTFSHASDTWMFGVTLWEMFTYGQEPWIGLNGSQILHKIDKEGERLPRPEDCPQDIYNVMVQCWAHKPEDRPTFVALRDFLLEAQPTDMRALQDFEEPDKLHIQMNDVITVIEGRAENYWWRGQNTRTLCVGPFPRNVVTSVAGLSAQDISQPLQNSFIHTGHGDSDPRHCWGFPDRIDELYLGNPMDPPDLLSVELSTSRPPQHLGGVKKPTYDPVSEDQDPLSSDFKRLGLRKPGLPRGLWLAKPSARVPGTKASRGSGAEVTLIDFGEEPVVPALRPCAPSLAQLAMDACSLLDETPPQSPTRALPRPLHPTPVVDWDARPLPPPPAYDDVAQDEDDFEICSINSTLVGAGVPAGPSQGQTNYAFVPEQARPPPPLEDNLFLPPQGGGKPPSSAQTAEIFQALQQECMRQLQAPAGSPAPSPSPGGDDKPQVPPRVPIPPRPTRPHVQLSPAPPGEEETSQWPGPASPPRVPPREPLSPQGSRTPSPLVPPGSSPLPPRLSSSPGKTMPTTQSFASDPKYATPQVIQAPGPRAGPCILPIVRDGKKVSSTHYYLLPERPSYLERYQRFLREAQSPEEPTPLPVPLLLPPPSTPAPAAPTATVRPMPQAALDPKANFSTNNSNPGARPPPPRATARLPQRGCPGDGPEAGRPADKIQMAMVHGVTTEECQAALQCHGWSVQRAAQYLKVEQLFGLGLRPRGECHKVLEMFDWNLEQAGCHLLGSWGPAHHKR

Sequence of Tyrosine-protein kinase ABL1 (Homo sapiens) (P00519 whole entry): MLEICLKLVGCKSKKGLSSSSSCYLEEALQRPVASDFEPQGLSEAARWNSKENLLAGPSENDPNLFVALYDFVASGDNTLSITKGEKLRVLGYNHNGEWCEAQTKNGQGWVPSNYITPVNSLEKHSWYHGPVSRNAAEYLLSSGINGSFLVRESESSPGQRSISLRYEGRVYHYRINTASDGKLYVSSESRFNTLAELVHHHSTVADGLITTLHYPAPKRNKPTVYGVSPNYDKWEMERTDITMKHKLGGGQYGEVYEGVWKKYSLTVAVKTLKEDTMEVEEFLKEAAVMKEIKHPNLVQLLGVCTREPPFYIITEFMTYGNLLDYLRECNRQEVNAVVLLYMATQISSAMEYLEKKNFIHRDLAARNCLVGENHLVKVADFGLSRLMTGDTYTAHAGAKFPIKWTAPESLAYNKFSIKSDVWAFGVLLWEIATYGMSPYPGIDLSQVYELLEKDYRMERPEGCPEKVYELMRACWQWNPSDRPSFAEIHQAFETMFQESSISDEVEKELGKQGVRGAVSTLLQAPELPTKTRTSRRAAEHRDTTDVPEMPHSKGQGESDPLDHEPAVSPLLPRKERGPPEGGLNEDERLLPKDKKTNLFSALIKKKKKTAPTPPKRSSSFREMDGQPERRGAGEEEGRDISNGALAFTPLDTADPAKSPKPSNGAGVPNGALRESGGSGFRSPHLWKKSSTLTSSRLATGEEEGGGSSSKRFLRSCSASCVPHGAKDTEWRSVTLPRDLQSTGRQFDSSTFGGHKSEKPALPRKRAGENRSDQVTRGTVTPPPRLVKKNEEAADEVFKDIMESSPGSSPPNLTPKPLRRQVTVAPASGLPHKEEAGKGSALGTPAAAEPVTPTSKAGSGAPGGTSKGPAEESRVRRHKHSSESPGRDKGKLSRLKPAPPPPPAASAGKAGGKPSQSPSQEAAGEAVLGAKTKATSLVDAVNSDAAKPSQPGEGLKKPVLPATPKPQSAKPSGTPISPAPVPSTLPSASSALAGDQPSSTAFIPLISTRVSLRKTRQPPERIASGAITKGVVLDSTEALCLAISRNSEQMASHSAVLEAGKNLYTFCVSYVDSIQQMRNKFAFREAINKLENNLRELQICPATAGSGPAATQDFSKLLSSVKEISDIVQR

SMILES	Activity [1] [%]	Activity [2] [%]	Activity [3] [%]	Activity [4] [%]	Activity [5] [%]	Activity [6] [%]	Activity [7] [%]	Activity [8] [%]	Activity [9] [%]	Activity [10] [%]	Activity [11] [%]	Activity [12] [%]
COc1cc2nc(C)nc(N[C@H](C)c3cccc(-c4cn[nH]c4)c3)c2cc1OC	54	93	87	89	100	63	90	89	100	67	81	70
COc1cc2ncnc(N[C@H](C)c3cccc4ccccc34)c2cc1OC	100	100	100	91	100	96	100	94	96	96	100	100
